Usually IC50 stands for the concentration needed to halve the response being measured. A word on the IC90: it is the concentration at which the effect reaches the 90% level.

Structures are written as SMILES.

The test has as its system M. tuberculosis H37Rv growth inhibition with meropenem. The test can be described thus: dose response, H37Rv, with and without meropenem (AID 434987).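 Further: growth over 7 days at 37 °C before Alamar Blue read on day 9.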
Setting [1] is: M. tuberculosis H37Rv growth inhibition, measured here: IC50 without meropenem.
Where [2] appears, read: M. tuberculosis H37Rv growth inhibition, measured here: IC90 without meropenem.
Where [3] appears, read: measured here: IC90 with meropenem.

Regarding `Cc1ccc2[nH]c(O)c(N=Nc3nc4ccccc4s3)c2c1`, the IC50 is 6.76 µM. Also, the IC50 under setting [1] is > 100 µM. In addition, the IC90 under setting [2] was > 100 µM. Moreover, the 90% effect concentration (IC90) under setting [3] is > 100 µM.
On to `CNC(=S)N/N=C1\C(=O)c2cccc3cccc1c23`, for which the IC50 was 20.1 µM. Under setting [1], the IC50 is > 100 µM. Also, the IC90 under setting [2] is > 100 µM. Also, the IC90 under setting [3] was > 100 µM.
`O=C1c2ccccc2N2C(=O)c3ccccc3C2N1O` (configuration not stated): the IC50 was 13.9 µM. Under setting [1], the IC50 came to 39.3 µM. The IC90 under setting [2] was > 100 µM. The IC90 under setting [3] was 56.4 µM.

Source of the values: PubChem BioAssay AID434987 (Southern Research Specialized Biocontainment Screening …, 2010).
